The values that follow come from ChEMBL document CHEMBL6182931, “Chemical Evolution of Aplithianine Class of Serine/Threonine Kinase Inhibitors” (J Med Chem, 2025).

Calls of active or inactive are those of the source. The calls are words filed in the database; no cut-off is given here. Where only a bound is given, the exact number is not on record here.

The nature of assay [1]: Inhibition of DNAJB1-PKAcalpha (unknown origin) using biotinylated-peptide substrate CREB incubated for 45 mins in presence of ATP and cAMP by ELISA. Also noted: species or system Homo sapiens. For orientation: In an ELISA, binding on a coated surface is turned into a signal by an enzyme label.
Assay [2] relates to OVCAR-4. Kind of assay: Antiproliferative activity against human OVCAR-4 cells assessed as growth inhibition. It is filed as functional, cell-based.
The subject of assay [3] is MOLT-4. Kind of assay: Antiproliferative activity against human MOLT-4 cells assessed as growth inhibition. It is filed as functional.
In assay [4] the test system is MDA-MB-468. Kind of assay: Antiproliferative activity against human MDA-MB-468 cells assessed as growth inhibition. It counts as functional, cell-based.
Assay [5] relates to LOX IMVI. Kind of assay: Antiproliferative activity against human LOX IMVI cells assessed as growth inhibition. It counts as functional.
Assay [6] concerns SR. Kind of assay: Antiproliferative activity against human SR cells assessed as growth inhibition. It is filed as functional.
In assay [7] the test system is NCI/ADR-RES. Kind of assay: Antiproliferative activity against human NCI/ADR-RES cells assessed as growth inhibition. It counts as functional, cell-based.
The nature of assay [8]: Inhibition of DNAJB1-PKAcalpha (unknown origin) overexpressed in mouse NIH/3T3 cells assessed as inhibition of CREB phosphorylation at Ser133 residue preincubated for 30 mins followed by forskolin addition and measured after 30 mins by fluorescence based multilabel reader analysis. It is filed as cell-based. The following applies: NIH3T3.

Consider `C1=C(c2ccnc3[nH]ccc23)SCCN1c1ncnc2occc12`, for which the half-maximal inhibitory concentration (IC50) (in general, the concentration at which inhibition is half-maximal) in assay [1] turned out to be 19 nM. For the same compound, the result in assay [2] and in assay [7] was inactive. Also, the result in assay [3], in assay [4] and in assay [6] was Active. In addition, the GI50 (in general, the concentration giving 50% growth inhibition) in assay [5] is above 1000 nM.

Regarding `C[C@@H]1C[C@@H](N)CN(C(=O)C2=CN(c3ncnc4[nH]ccc34)CCS2)C1`, the IC50 came to 6 nM in assay [1] and 2700 nM in assay [8]. For the same compound, the result in assay [2] and in assay [7] was inactive. The outcome in assay [3], in assay [4] and in assay [6] was Active. Moreover, the concentration for 50% growth inhibition (GI50) in assay [5] is above 1000 nM.

As to `Cn1cncc1C1=CN(c2ncnc3[nH]ccc23)CCS1`, the values for the IC50 in assay [1] and in assay [8] were 150 nM and above 10000 nM, respectively. For the same compound, the outcome in assay [2] and in assay [7] was inactive. Moreover, the result in assay [3], in assay [4] and in assay [6] was Active. Further, the GI50 in assay [5] is above 1000 nM.

On to `C[C@@]1(N)CCCN(C(=O)C2=CN(c3ncnc4[nH]ccc34)CCS2)C1`, for which, in assay [8], the IC50 is 4400 nM. Besides, the result in assay [2] and in assay [7] was inactive. In addition, the result in assay [3], in assay [4] and in assay [6] was Active. Also, the GI50 in assay [5] was above 1000 nM.

On to `C1=C(C2=CN(c3ncnc4[nH]ccc34)CCS2)CCNC1`, for which the result in assay [2] and in assay [7] was inactive. Besides, the outcome in assay [3], in assay [4] and in assay [6] was Active. Besides, in assay [5], the concentration for 50% growth inhibition (GI50) is above 1000 nM.

As for `Cc1cc(N2C=C(c3ccnc4[nH]ccc34)SCC2)ncn1`, the IC50 in assay [1] was found to be 200 nM. Besides, the outcome in assay [2] and in assay [7] was inactive. The result in assay [3], in assay [4] and in assay [6] was Active. The 50% growth inhibitory concentration (GI50) in assay [5] is above 1000 nM.

Turning to `C[C@@]1(N)CCCN(C(=O)C2=CN(c3ccnc4[nH]ccc34)CCS2)C1`, the IC50 amounted to 16 nM in assay [1] and 3600 nM in assay [8].

Take `C1=C(c2ccnc3[nH]ccc23)SCCN1c1cc(-c2ccsc2)ncn1`: the IC50 in assay [1] is 2200 nM.

Take `C1=C(c2cnco2)SCCN1c1ncnc2[nH]cnc12`: the IC50 in assay [1] was found to be 1800 nM.

In the case of `Cc1c[nH]c2ncnc(N3C=C(c4cncn4C)SCC3)c12`, the figures for the IC50 in assay [1] and in assay [8] were 92 nM and 8200 nM, respectively. Moreover, the result in assay [2] and in assay [7] was inactive. The result in assay [3], in assay [4] and in assay [6] was Active. Also, the 50% growth inhibitory concentration (GI50) in assay [5] is above 1000 nM.

As to `C[C@@H](CN)NC(=O)C1=CN(c2ncnc3[nH]ccc23)CCS1`, the IC50 in assay [1] was found to be 110 nM.

For `C1=C(c2ccnc3[nH]ccc23)SCCN1c1cc(OCc2ccccc2)ncn1`, the 50% inhibitory concentration (IC50) in assay [1] stood at 330 nM.

Turning to `Cc1ncoc1C1=CN(c2ncnc3[nH]cc(C)c23)CCS1`, in assay [1], the IC50 was above 10000 nM.

For the compound `Cc1ncoc1C1=CN(c2ncnc3[nH]cnc23)CCS1`, the IC50 in assay [1] stood at 1400 nM.

Take `C1=C(c2cnco2)SCCN1c1ncnc2[nH]ccc12`: in assay [1], the 50% inhibitory concentration (IC50) is 2900 nM.

Turning to `N[C@@H]1CCCC[C@H]1NC(=O)C1=CN(c2ncnc3[nH]ccc23)CCS1`, in assay [1], the 50% inhibitory concentration (IC50) is 2300 nM.

Regarding `Cc1c[nH]c2ncnc(N3C=C(c4cc[nH]n4)SCC3)c12`, the IC50 in assay [1] worked out at 5200 nM.

Regarding `CN[C@H]1CCCN(C(=O)C2=CN(c3ncnc4[nH]cnc34)CCS2)C1`, the half-inhibitory concentration (IC50) in assay [1] came out at 770 nM.

For the compound `Cn1nccc1C1=CN(c2ncnc3[nH]cnc23)CCS1`, the concentration for half-maximal inhibition (IC50) in assay [1] came to 7200 nM.

As for `C1=C(c2ccnc3[nH]ccc23)SCCN1c1cc(N2CCOCC2)ncn1`, in assay [1], the IC50 was found to be 600 nM.

Turning to `N[C@@H]1CCCN(C(=O)C2=CN(c3ccnc4[nH]ccc34)CCS2)C1`, in assay [1], the IC50 amounted to 19 nM.

As to `C[C@H]1[C@H](N)CCCN1C(=O)C1=CN(c2ncnc3[nH]ccc23)CCS1`, the 50% inhibitory concentration (IC50) in assay [1] was found to be 2000 nM.

On to `C1=C(c2ccncn2)SCCN1c1ccnc2[nH]ccc12`, for which, in assay [1], the IC50 was above 10000 nM.

With `N[C@@H]1CCCCN(C(=O)C2=CN(c3ncnc4[nH]ccc34)CCS2)C1`, the IC50 in assay [1] was found to be 130 nM.

In the case of `Cn1cc(C2=CN(c3ncnc4[nH]cnc34)CCS2)cn1`, the half-maximal inhibitory concentration (IC50) in assay [1] was determined as 2700 nM.

As to `C[C@@H]1CCN(C(=O)C2=CN(c3ncnc4[nH]ccc34)CCS2)C[C@@H]1N`, the IC50 in assay [1] is 60 nM.

As to `C[C@H](N)CNC(=O)C1=CN(c2ncnc3[nH]ccc23)CCS1`, in assay [1], the IC50 was 180 nM.

On to `Cn1nccc1C1=CN(c2ncnc3[nH]ccc23)CCS1`, for which, in assay [1], the 50% inhibitory concentration (IC50) is above 10000 nM.

On to `O=C(N[C@H](c1ccccc1)[C@@H]1CCCN1)C1=CN(c2ncnc3[nH]ccc23)CCS1`, for which the IC50 in assay [1] is 640 nM.

`Cc1c[nH]c2nccc(N3C=C(C(=O)N4CCC[C@](C)(N)C4)SCC3)c12`: the IC50 in assay [1] came to 500 nM.

As to `C[C@H]1CCN(C(=O)C2=CN(c3ncnc4[nH]ccc34)CCS2)C[C@@H]1N`, the values for the concentration for half-maximal inhibition (IC50) in assay [1] and in assay [8] were 7 nM and 2500 nM, respectively.

As for `CN(C[C@H]1CCCCN1)C(=O)C1=CN(c2ncnc3[nH]ccc23)CCS1`, in assay [1], the IC50 was 420 nM.

With `O=C(N[C@@H]1CCCNC1)C1=CN(c2ncnc3[nH]ccc23)CCS1`, the half-inhibitory concentration (IC50) in assay [1] worked out at 690 nM.

On to `FC(F)(F)COc1cc(N2C=C(c3ccnc4[nH]ccc34)SCC2)ncn1`, for which the IC50 in assay [1] worked out at 820 nM.

As to `Cc1ncc(C2=CN(c3ncnc4[nH]ccc34)CCS2)o1`, in assay [1], the IC50 was above 10000 nM.

For `Cc1ncc(C2=CN(c3ncnc4[nH]cc(C)c34)CCS2)o1`, the IC50 in assay [1] is above 10000 nM.

Regarding `N[C@@H]1CCCC[C@@H]1NC(=O)C1=CN(c2ncnc3[nH]ccc23)CCS1`, the 50% inhibitory concentration (IC50) in assay [1] is 130 nM.

Consider `C1=C(c2ccnc3[nH]ccc23)SCCN1c1ncnc2sccc12`, for which the half-inhibitory concentration (IC50) in assay [1] is 310 nM. The outcome in assay [2] and in assay [7] was inactive. The result in assay [3], in assay [4] and in assay [6] was Active. The GI50 in assay [5] is above 1000 nM.

On to `CN[C@@H]1CCCN(C(=O)C2=CN(c3ncnc4[nH]ccc34)CCS2)C1`, for which the IC50 in assay [1] turned out to be 87 nM.

On to `Cn1cc(C2=CN(c3ncnc4[nH]ccc34)CCS2)cn1`, for which the half-inhibitory concentration (IC50) in assay [1] was found to be 440 nM. In addition, the result in assay [2] and in assay [7] was inactive. Also, the result in assay [3], in assay [4] and in assay [6] was Active. Moreover, the 50% growth inhibitory concentration (GI50) in assay [5] is above 1000 nM.

As for `CN[C@@H]1CCCN(C(=O)C2=CN(c3ccnc4[nH]cc(C)c34)CCS2)C1`, the half-inhibitory concentration (IC50) in assay [1] was 730 nM.

In the case of `O=C(N[C@@H](c1ccccc1)[C@@H]1CCCN1)C1=CN(c2ncnc3[nH]ccc23)CCS1`, the IC50 in assay [1] is 13 nM.

As for `C1=C(c2cccnc2)SCCN1c1ncnc2[nH]ccc12`, in assay [1], the IC50 is above 10000 nM.

Regarding `N[C@H]1CCN(C(=O)C2=CN(c3ncnc4[nH]ccc34)CCS2)C1`, the IC50 in assay [1] worked out at 500 nM.
